Experimental data published in US5652271A, “Therapeutic agents” (Knoll Aktiengesellschaft, priority 1993, dated 1997).
Where a name gives a salt, the structure may show the parent alone. Read-outs that look alike come from different tables or passages of the source.

Experiments:
[1] = tested on: ptosis (eye closure) induced by reserpine; assay: prevention of ptosis (eye closure) induced by reserpine in rats; type: in vivo, rat (male, Charles River CD strain)
From the text: Male rats of the Charles River CD strain weighing between 140 and 180 g were randomly separated into five rats in each cage and supplied with food and water ad libitum. Eighteen hours prior to initiation of the test four of the five rats were marked with a pen such that each rat was individually identifiable; food was then withdrawn. The following morning, two hours before the test, the rats were weighed and a semi-randomised code was used to allocate treatments to rats. The test commenced by orally administering either:
The degree of ptosis was scored […] later using the following observer rating system: 0=eye fully open, 1=eye 1/4closed, 2=eye 1/2closed, 3=eye 3/4closed, 4=eye fully closed. A mean ptosis score was then calculated for all identically treated rats usually comprising a group of eight rats. […] It is widely understoodby those skilled in the art that this test is indicative of compounds having antidepressant activity in humans.

dopamine reuptake sites = dopamine reuptake sites (Rattus norvegicus, UniProt P23977); assay: inhibition of [3H]dopamine uptake in vitro in rat striatal synaptosomes; type: biochemical, rat (male Charles River); conditions: [3H]dopamine (2.5 nM) uptake, 5 minutes at 37° C.; calculated from IC50; means ± sem of three independent determinations
Experimental: Striatal tissue from the brains of male Charles River rats weighing 150-250 g was homogenised in ice-cold 0.32M sucrose (1:10 w/v) using a motor driven teflon pestle (difference in diameter between mortar and pestle 0.5 mm). Nuclei and cell debris were removed by centrifugation at 1,500 g at 4° C. for 10 minutes. The pellet (P1) was discarded and the supernatant centrifuged at 18,000 g at 4° C. for 10 minutes. The crude synaptosomal pellet (P2) was resuspended in Krebs-Henseleit buffer (equivalent to 4.2 mg wet weight of tissue/ml).
Crude synaptosomes were incubated in a shaking water bath at 37° C. for 15 minutes. Aliquots (150 μl; equivalent to 0.625 mg wet weight of tissue/tube) were then added to tubes containing 275 μl of Krebs-Henseleit buffer and 50 μl of Krebs-Henseleit buffer (total uptake) or 50 μl of test compound (10 concentrations ranging from 10-11-10-4M) or 50 μl of GBR 12909 (10^-5M; non-specific uptake). Uptake was initiated by the addition of 25 μl of freshly prepared [3H]dopamine(2.5 nM), followed by vortexing and was continued for 5 minutes at 37° C. in the shaking water bath.
Uptake was terminated by filtration under vacuum through Skatron 11735 filters using a Skatron cell harvester. Filters were than washed with 8 ml ice-cold saline. The scored filter paper discs were punched into vials, scintillation fluid added and radioactivity determinedby liquid scintillation counting.
The percentage inhibition of specific uptake of the tritiated ligand was calculated for each concentration of test compound. Inhibition curves were then produced. The concentration of compounds which gave 50% inhibition of specific uptake (IC50) was obtained from the curve. The inhibition constant (Ki) was then calculated using the formula [formula] in which [L] is the concentration of tritiated ligand used and Km is the affinity of the uptake site for the ligand. The Ki values for compounds for formula I and III are given in Table 1 as the means ± sem of three independent determinations.

[2] = Rattus norvegicus, po, 3 h, dose causing 50% prevention of reserpine-induced ptosis, test compound oral, reserpine 0.75 mg/kg intravenous, scored three hours later, read-out: ED50

dopamine reuptake sites, sequence (P23977 whole entry): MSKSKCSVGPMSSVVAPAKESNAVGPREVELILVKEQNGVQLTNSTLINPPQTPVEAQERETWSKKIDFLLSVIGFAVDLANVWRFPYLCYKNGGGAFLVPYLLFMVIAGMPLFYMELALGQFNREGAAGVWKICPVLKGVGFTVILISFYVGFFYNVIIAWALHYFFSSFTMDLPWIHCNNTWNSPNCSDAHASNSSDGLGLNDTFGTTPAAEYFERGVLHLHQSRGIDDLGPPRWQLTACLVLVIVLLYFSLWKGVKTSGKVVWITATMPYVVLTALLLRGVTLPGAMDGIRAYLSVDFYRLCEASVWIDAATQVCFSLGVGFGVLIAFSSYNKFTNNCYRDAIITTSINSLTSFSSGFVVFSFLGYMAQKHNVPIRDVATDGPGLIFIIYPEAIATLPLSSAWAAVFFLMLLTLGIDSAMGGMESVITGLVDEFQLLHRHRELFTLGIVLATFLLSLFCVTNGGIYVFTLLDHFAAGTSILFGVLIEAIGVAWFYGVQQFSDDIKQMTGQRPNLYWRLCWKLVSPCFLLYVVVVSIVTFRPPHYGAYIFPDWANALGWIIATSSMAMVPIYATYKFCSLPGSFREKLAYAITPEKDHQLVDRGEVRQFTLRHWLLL

| Ki (dopamine reuptake sites) [nM] | Compound | ED50 ([1]; dose causing 50% prevention of reserpine-induced ptosis, test compound oral, reserpine 0.75 mg/kg intravenous, scored three hours later, citrate) [mg/kg] | ED50 [1, 2] [mg/kg] | ED50 ([1]; Rattus norvegicus, po, 3 h) [mg/kg] |
| --- | --- | --- | --- | --- |
|  | CN(C)CCCSCC(O)C1(c2ccc(Cl)c(Cl)c2)CCC1.O=C(O)CC(O)(CC(=O)O)C(=O)O (single isomer, unassigned; (+)) [Example 17, (+)-1-[1-(3,4-dichlorophenyl)cyclobutyl]-2-[3-(dimethylamino)-propylthio]ethanol citrate] | 2.5 |  |  |
|  | CN(C)CCCSCC(O)C1(c2ccc(Cl)c(Cl)c2)CCC1.O=C(O)CC(O)(CC(=O)O)C(=O)O (single isomer, unassigned; (-)) [Example 16, (-)-1-[1-(3,4-dichlorophenyl)cyclobutyl]-2-[3-(dimethylamino)propylthio]ethanol citrate] |  | 2.2 |  |
|  | CN(C)CCSCC(=O)C1(c2ccc(Cl)c(Cl)c2)CCC1.Cl [Example 1, 1-[1-(3,4-dichlorophenyl)cyclobutyl]-2-[2-(dimethyl-amino)ethylthio]ethanone hydrochloride] |  | 8.5 |  |
|  | CN(C)CC[S+]([O-])CC(=O)C1(c2ccc(Cl)c(Cl)c2)CCC1.Cl (stereo not drawn) [Example 2, 1-[1-(3,4-dichlorophenyl)cyclobutyl]-2-[2-(dimethylamino)ethylsulphinyl]ethanone hydrochloride] |  | 7.7 |  |
|  | CN(C)CCS(=O)(=O)CC(=O)C1(c2ccc(Cl)c(Cl)c2)CCC1.Cl [Example 3, 1-[1-(3,4-dichlorophenyl)cyclobutyl]-2-[2-(dimethylamino)ethylsulphonyl]ethanone hydrochloride] |  | 5.9 |  |
|  | CCN(CC)CCSCC(=O)C1(c2ccc(Cl)c(Cl)c2)CCC1 [Example 4, 1-[1-(3,4-dichlorophenyl)cyclobutyl]-2-[2-(diethylamino)ethylthio]ethanonehydrochloride] |  | 9.7 |  |
|  | CN(CCSCC(=O)C1(c2ccc(Cl)c(Cl)c2)CCC1)Cc1ccccc1.Cl [Example 5, 2-[2-(N-benzyl-N-methylamino)ethylthio]-1-[1-(3,4-dichlorophenyl)cyclobutyl]ethanone hydrochloride] |  | 16.4 |  |
|  | CN(C)CCSCC(O)C1(c2ccc(Cl)c(Cl)c2)CCC1.Cl (stereo not drawn) [Example 6, 1-[1-(3,4-dichlorophenyl)cyclobutyl]-2-[2-(dimethyl-amino)ethylthio]ethanol hydrochloride] |  | 5.7 |  |
| 13.4 ± 0.1 | CN(C)CCCS(=O)(=O)CC(=O)C1(c2ccc(Cl)c(Cl)c2)CCC1.Cl [Example 8, 1-[1-(3,4-dichlorophenyl)cyclobutyl]-2-[3-(dimethylamino)propylsulphonyl]ethanone hydrochloride] |  | 3.4 |  |
| 7.3 ± 1.6 | CN(C)CCCSCC(O)C1(c2ccc(Cl)c(Cl)c2)CCC1 (stereo not drawn) [Example 9, 1-[1-(3,4-dichlorophenyl)cyclobutyl]-2-[3-(dimethylamino)propyl-thio]ethanol] |  | 4.8 |  |
| 7.2 ± 1 | CC(CSCC(=O)C1(c2ccc(Cl)c(Cl)c2)CCC1)CN(C)C (stereo not drawn) [Example 10, 1-[1-(3,4-dichlorophenyl)cyclobutyl]-2-[3-(dimethylamino)-2-methylpropylthio]ethanone] |  | 8.7 |  |
|  | CN(C)CCSCC(=O)C1(c2ccc3ccccc3c2)CCC1.Cl [Example 11, 2-[2-(dimethylamino)ethylthio]-1-[1-(2-naphthyl)cyclobutyl]ethanone hydrochloride] |  | 24.1 |  |
|  | CN(C)CCCSCC(=O)C1(c2cccc(Cl)c2)CCC1.Cl [Example 12, 1-[1-(3-chlorophenyl)cyclobutyl]-2-[3-(dimethylamino)propylthio]ethanone hydrochloride] |  | 23.4 |  |
| 6.5 ± 1 | CN(C)CCCCSCC(=O)C1(c2ccc(Cl)c(Cl)c2)CCC1.Cl [Example 13, 1-[1-(3,4-dichlorophenyl)cyclobutyl]-2-[4-(dimethylamino)-butylthio]ethanone hydrochloride] |  | 5.9 |  |
| 13.4 ± 2.1 | CCCN(CCC)CCCSCC(=O)C1(c2ccc(Cl)c(Cl)c2)CCC1 [Example 14, 1-[1-(3,4-dichlorophenyl)cyclobutyl]-2-[3-(dipropylamino)propylthio]ethanone] |  | 7.3 |  |
| 6.9 ± 0.6 | CC(CSCC(O)C1(c2ccc(Cl)c(Cl)c2)CCC1)CN(C)C (stereo not drawn) [Example 19, 1-[1-(3,4-dichlorophenyl)cyclobutyl]-2-[3-(dimethylamino)-2-methylpropylthio]ethanol] |  | 6.9 |  |
| 4.4 ± 0.2 | CN(C)CCCSCC(=O)C1(c2ccc(Cl)c(Cl)c2)CCCC1.Cl [Example 20, 1-[1-(3,4-dichlorophenyl)cyclopentyl]-2-[3-(dimethylamino)propylthio]ethanone hydrochloride] |  | 3.7 |  |

| Compound | Ki (dopamine reuptake sites) [nM] | ED50 ([1]; dose causing 50% prevention of reserpine-induced ptosis, test compound oral, reserpine 0.75 mg/kg intravenous, scored three hours later, citrate) [mg/kg] | ED50 [1, 2] [mg/kg] | ED50 ([1]; Rattus norvegicus, po, 3 h) [mg/kg] |
| --- | --- | --- | --- | --- |
| CN(C)CCCSCC(=O)C1(c2ccc(Cl)c(Cl)c2)CCC1.Cl [Example 7, 1-[1-(3,4-dichlorophenyl)-cyclobutyl]-2-[3-(dimethylamino)propylthio]ethanone hydrochloride] | 5 ± 0.5 |  | 4.2 |  |
| CN(C)CCCSCC(=O)C1(c2ccc(Cl)c(Cl)c2)CCC1.O=C(O)/C=C/C(=O)O [Example 15, 1-[1-(3,4-dichloro-phenyl)cyclobutyl]-2-[3-(dimethylamino)propylthio]ethanone fumarate] | 3.7 ± 0.4 |  | 4 |  |
| CN(C)CCCSCC(=O)C1(c2ccc(Cl)c(Cl)c2)CCC1.O=C(O)CC(O)(CC(=O)O)C(=O)O [Example 18, 1-[1-(3,4-dichlorophenyl)cyclobutyl]-2-[3-(dimethylamino)propylthio]ethanone citrate] | 4.2 ± 0.4 |  |  | 4.9 |
